Like-named read-outs stand apart in the source and are kept apart here.
Experiments:
Assay type in all cases: biochemical
[1] = target: TrkA (histidine-tagged recombinant human TrkA, cytoplasmic domain) (Homo sapiens (Human), UniProt P04629); assay: TrkA ELISA Assay
Outline: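 His-tagged human TrkA cytoplasmic domain phosphorylated poly(Glu,Ala,Tyr 6:3:1) coated at 0.025 mg/mL, with inhibitors present. Phosphotyrosine was detected with HRP-conjugated PY20 antibody (0.2 μg/mL) and TMB, read as absorbance at 450 nm after phosphoric acid stop.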

[2] = target: Human Jak2 kinase domain (Homo sapiens (Human), UniProt O60674); assay: Jak2 Inhibition Assay (Omnia kinase assay); conditions: 500 μM ATP
[3] = target: GST-tagged human Jak1 kinase domain (Homo sapiens (Human), UniProt P23458); assay: Jak1 Inhibition Assay (Omnia kinase assay); conditions: Table 2; 500 μM ATP
Description: (§1) The assays described in Examples C, D, E and F for the determination of JAK1, JAK2, JAK3 and Tyk2 kinase activity, respectively, utilized the Omnia® Kinase fluorescence peptide substrate-based technology (Invitrogen). […] The reactions were therefore read at excitation 360 nm and emission was measured at 485 nm every 50 seconds for 45 minutes using a PerkinElmer EnVision Multilabel Plate Reader.
(§2) The final buffer conditions for each of the JAK1, JAK2, JAK3 and Tyk2 assays were as follows: 25 mM HEPES, pH 7.4, 10 mM MgCl2, 0.01% Triton X-100 and 1 mM DTT.
(§3) Compounds were prepared at 50× the final concentration in DMSO by conducting 3-fold serial dilutions from a 500-μM or 1000-μM intermediate dilution to give a 10-point dosing curve having a high dose of 10 or 20 μM. Two-μL aliquots of these were transferred to a fresh plate for a ten-fold intermediate dilution with assay buffer. Five-μL aliquots of the diluted compounds were then transferred to 20-μL of assay mixtures described in Examples C, D, E and F for a final concentration of DMSO of 2%. A standard or reference compound was typically included on each assay plate to validate that plate. For each plate, percent of control (POC) values were calculated for each well according to the following equation:
(§4) [formula] • where • Xmax=Average Uninhibited Controls • Xmin=Average Background IC50's were estimated from the POC's using a standard 4-parameter logistic model:
(§5) [formula] • where • A=Minimum Y (Bottom Asymptote) • B=Maximum Y (Top Asymptote) • C=EC50 • D=Slope Factor • X=Compound Concentration (nM) • Y=POC
(§6) The IC50 is defined as the concentration of inhibitor at which the POC equals 50 for the fitted curve.
Compounds of Formula I were screened for their ability to inhibit Jak1 using the general enzyme inhibition assay method, in which the assay mixture contained 500 μM ATP, 8 μM Omnia® Y12 peptide (Catalog # IVGN KPZ3121C; Invitrogen Corporation, Carlsbad, Calif.) and 5 nM Jak1 in a total volume of 20 μL. […] (catalog # IVGN PV4774).

[4] = target: GST-tagged human Jak3 kinase domain (Homo sapiens (Human), UniProt P52333); assay: Jak3 Inhibition Assay (Omnia kinase assay); conditions: Table 2; 500 μM ATP
Description: as §1, §2, §3, §4, §5, §6
Compounds of Formula I were screened for their ability to inhibit Jak3 using the general enzyme inhibition assay method, in which the assay mixture contained 500 μM ATP, 10 μM Omnia® Y7 peptide (Catalog # IVGN KNZ3071C, Invitrogen Corporation, Carlsbad, Calif.) and 1.5 nM Jak3 in a total volume of 20 μL. GST-tagged human Jak3 kinase domain comprising amino acids 781-1124 was purchased from Invitrogen Corporation, Carlsbad, Calif. (catalog # IVGN PV3855).

[5] = target: Human Tyk2 kinase domain (Homo sapiens (Human), UniProt P29597); assay: Tyk2 Inhibition Assay (Omnia kinase assay); conditions: Table 2; 500 μM ATP
Description: as §1, §2, §3, §4, §5, §6
Compounds of Formula I were screened for their ability to inhibit Tyk2 using the general enzyme inhibition assay method, in which the assay mixture contained 500 μM ATP, 8 μM Omnia® Y12 peptide (Catalog # IVGN KPZ3121C; Invitrogen Corporation, Carlsbad, Calif.) and 1 nM Tyk2 in a total volume of 20 μL. Human Tyk2 kinase domain, comprising amino acids 886 to 1187 with 10 additional histidine residues (histidine tag) on the carboxy terminus, was expressed and purified from bacculovirus in-house at Array BioPharma Inc. (Boulder, Colo.). The histidine tag was cleaved after purification using standard conditions.

Sequence of Human Jak2 kinase domain (O60674 808-1132): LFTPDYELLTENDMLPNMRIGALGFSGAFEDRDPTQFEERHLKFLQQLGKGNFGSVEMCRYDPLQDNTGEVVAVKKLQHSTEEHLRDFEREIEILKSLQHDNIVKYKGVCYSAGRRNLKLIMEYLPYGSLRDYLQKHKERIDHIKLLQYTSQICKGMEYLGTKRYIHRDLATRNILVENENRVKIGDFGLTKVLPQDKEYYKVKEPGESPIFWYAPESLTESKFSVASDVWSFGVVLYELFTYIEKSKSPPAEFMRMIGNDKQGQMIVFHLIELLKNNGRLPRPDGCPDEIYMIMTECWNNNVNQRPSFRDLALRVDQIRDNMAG
Sequence of TrkA (histidine-tagged recombinant human TrkA, cytoplasmic domain) (P04629 440-796): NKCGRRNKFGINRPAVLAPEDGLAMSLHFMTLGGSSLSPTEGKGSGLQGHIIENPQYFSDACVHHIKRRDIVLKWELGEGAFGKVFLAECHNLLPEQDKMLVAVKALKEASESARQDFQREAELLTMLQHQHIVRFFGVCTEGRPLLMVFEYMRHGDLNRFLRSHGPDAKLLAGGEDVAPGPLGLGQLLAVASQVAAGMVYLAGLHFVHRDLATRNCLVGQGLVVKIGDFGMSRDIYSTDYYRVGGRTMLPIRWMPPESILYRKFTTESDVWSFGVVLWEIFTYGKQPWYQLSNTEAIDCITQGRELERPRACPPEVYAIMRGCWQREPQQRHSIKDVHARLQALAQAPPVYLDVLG
Sequence of Human Tyk2 kinase domain (P29597 886-1187): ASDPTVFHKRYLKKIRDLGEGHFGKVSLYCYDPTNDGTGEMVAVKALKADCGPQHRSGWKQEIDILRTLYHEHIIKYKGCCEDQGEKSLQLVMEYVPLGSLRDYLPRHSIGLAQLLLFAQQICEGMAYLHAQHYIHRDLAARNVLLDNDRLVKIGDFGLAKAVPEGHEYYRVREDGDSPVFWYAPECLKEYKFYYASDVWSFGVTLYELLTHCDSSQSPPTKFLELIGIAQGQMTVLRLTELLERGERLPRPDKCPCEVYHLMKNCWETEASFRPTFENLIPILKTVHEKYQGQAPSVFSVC
Sequence of GST-tagged human Jak1 kinase domain (P23458 866-1154): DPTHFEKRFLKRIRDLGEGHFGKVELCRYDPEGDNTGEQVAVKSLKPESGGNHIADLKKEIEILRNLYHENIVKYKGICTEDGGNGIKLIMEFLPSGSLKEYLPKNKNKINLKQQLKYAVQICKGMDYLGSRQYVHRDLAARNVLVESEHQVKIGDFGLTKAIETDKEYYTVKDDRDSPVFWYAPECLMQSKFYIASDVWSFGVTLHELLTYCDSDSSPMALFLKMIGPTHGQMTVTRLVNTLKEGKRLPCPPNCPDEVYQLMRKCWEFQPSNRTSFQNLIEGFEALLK
Sequence of GST-tagged human Jak3 kinase domain (P52333 781-1124): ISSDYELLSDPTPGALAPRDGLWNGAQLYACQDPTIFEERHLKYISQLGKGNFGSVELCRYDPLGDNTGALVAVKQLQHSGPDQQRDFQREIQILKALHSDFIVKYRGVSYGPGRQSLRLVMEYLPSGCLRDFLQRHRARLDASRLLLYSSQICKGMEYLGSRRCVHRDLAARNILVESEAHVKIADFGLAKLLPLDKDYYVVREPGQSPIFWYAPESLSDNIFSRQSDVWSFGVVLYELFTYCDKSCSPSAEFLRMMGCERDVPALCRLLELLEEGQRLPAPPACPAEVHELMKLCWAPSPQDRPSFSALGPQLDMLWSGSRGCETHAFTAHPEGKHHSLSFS

IC50 ([1]; Table 1, ELISA, 500 μM ATP, read-out: TrkA Enzyme IC50): 1.95 nM
IC50 ([1]; Table 2, read-out: TrkA IC50): 1.9 nM
IC50 ([2]; Table 1, >1000 nM when >50% inhibition not observed at 1000 nM, read-out: Jak2 Enzyme IC50): > 1000 nM
IC50 ([2]; Table 2, read-out: Jak2 IC50): > 1000 nM
IC50 [3]: > 1000 nM
IC50 [4]: > 1000 nM
IC50 [5]: > 1000 nM
Compound: NC(=O)c1cnn2ccc(N3CCC[C@@H]3c3cc(F)ccc3F)nc12 [Example 30, (R)-5-(2-(2,5-difluorophenyl)pyrrolidin-1-yl)pyrazolo[1,5-a]pyrimidine-3-carboxamide]
